The text below walks through data of a melting point compilation (Tetko et al.).

Molecules are shown by their SMILES.

By melting point is commonly meant the temperature, or range, at which the solid turns liquid. As for `COc1cccc(N(C)C(=S)Oc2cccc(C(C)(C)C)c2)n1`, the melting point came to 86 °C.

`Cc1ccc(C)nc1` gave a melting point of -16 °C.

In turn, `COC(=O)C1=C(C)NC(C)=C(C(=O)OC)C1c1ccccc1` registered a melting point of 198 °C.

In turn, `O=[N+]([O-])c1cc([N+](=O)[O-])c(/C=C/c2ccc3c(c2)OCO3)cc1/C=C\c1ccc2c(c1)OCO2` gave a melting point of 215 °C.

As for `CCOC(=O)c1ccccc1C(=C1C=C(Br)C(=O)C(Br)=C1)c1cc(Br)c(O)c(Br)c1`, the melting point was in the range of 208 to 211 °C.

As to `O=C1CCC2(CC1)OCCO2`, the melting point fell in the range of 74 to 76 °C.

For the compound `COC(=O)c1cc([N+](=O)[O-])ccc1OC`, the melting point was determined as 101 °C.

`COc1c(OC)c(OC(C)=O)c2cc(C#N)ccc2c1OC(C)=O` had a melting point of 124 °C.

`COc1cccc(C(CCC(=O)O)C(C)(C)C(=O)O)c1` (centres undefined) gave a melting point of 137 °C.

The compound `O=C1CC=CCC(=O)CC=CC1` displayed a melting point of 184 °C.

With `O=C(Cl)c1csc(-c2ccc3c(c2)CCO3)n1`, the melting point lay in the range of 133 to 135 °C.

In turn, `COC(=O)c1cccc([N+](=O)[O-])c1O` yielded a melting point of 131 °C.

For the compound `C[Si](N[Si](C)(c1ccccc1)c1ccccc1)(c1ccccc1)c1ccccc1`, the melting point stood at 91 °C.

Turning to `O=C(O)c1cnon1`, the melting point lay within 102 to 104 °C.

`Nc1cc([N+](=O)[O-])ccc1F` yielded a melting point of 101 °C.

Take `O=S(=O)(Cl)c1c(Cl)ccc2nonc12`: the melting point lay in the range of 73 to 75 °C.

The compound `O=C(c1ccc(C(=O)C(Cl)Cl)cc1)C(Cl)Cl` came in with a melting point of 143 °C.

On to `CC1(C)OC2COC3(CO)OC(C)(C)OC3C2O1` (centres undefined), for which the melting point is 95.5 to 97.5 °C.

`CON=C(C(=O)O)c1csc(N)n1` came in with a melting point of 176 to 182 °C.

Turning to `Cn1sc(Cl)cc1=O`, the melting point was 52 °C.

Regarding `O=C(O)c1csc(-c2ccc3c(c2)CCO3)n1`, the melting point was in the range of 210 to 214 °C.

`CCCN` had a melting point of -83 °C.

`CC(C)Nc1ccc(C(F)(F)F)cc1[N+](=O)[O-]`: the melting point is 103 to 105 °C.

As for `C=CCn1c(=O)oc(=O)c2ccccc21`, the melting point lay within 111 to 113 °C.

Compound `CCCCC(C)CC` (centres undefined) had a melting point of -100 °C.

`O=C(OC1OC(COCc2ccccc2)C(OCc2ccccc2)C1OCc1ccccc1)c1ccc([N+](=O)[O-])cc1` (centres undefined) yielded a melting point of 92 to 94 °C.

Take `O=C(Cl)c1cccc(C(=O)Cl)n1`: the melting point worked out at 59 °C.

With `CN(C)c1ccc(C=C2N=C(c3ccccc3)OC2=O)cc1`, the melting point was 204 to 205 °C.

The compound `CCN(CC)CC(O)CO` (centres undefined) registered a melting point of -30 °C.

For the compound `Cc1onc(-c2ccc(F)cc2)c1C(=O)Cl`, the melting point is 51 to 55 °C.

Regarding `Cc1ccccc1NN=C1C(=O)NC(=O)NC1=O`, the melting point is 265 °C.

In turn, `C=C(C)C=O` gave a melting point of -81 °C.

As for `O=C(O)C1(c2c(F)cccc2Cl)CCCCC1`, the melting point was in the range of 128 to 134 °C.

For `OCc1ccccc1C(c1ccc(O)cc1)c1ccc(O)cc1`, the melting point is 202 °C.

`COc1ccc(C=C2C(=O)NC(=N)N2C)cc1OC` yielded a melting point of 243 to 245 °C.

For `O=C1CC(c2ccccc2)Oc2ccccc21` (centres undefined), the melting point was found to be 77 °C.

The compound `CC12CCC(=O)C=C1C=CC1C2CCC2(C)C1CCC21CCC(=O)O1` (centres undefined) showed a melting point of 150 °C.

In turn, `N#CC(=Cc1cccc(O)c1)C(=O)O` gave a melting point of 230 to 233 °C.

`O=C(O)c1ccc(Oc2cccnc2)o1` had a melting point of 150 to 153 °C.

`CCCOc1c(Cl)cc(C(=O)O)cc1Cl` came in with a melting point of 129 to 132 °C.

With `O=Cc1cccc2cccc([N+](=O)[O-])c12`, the melting point came out at 125 °C.

`Cc1cc([N+]([O-])=Nc2ccccc2)ccc1N=Nc1ccccc1` returned a melting point of 103 °C.

Compound `Sc1cccc(Cl)c1Cl` yielded a melting point of 57 to 61 °C.

In turn, `C#Cc1ccc(-c2ccccc2)cc1` had a melting point of 80 to 87 °C.

For `CC(C)(C)OC(=O)N1CCC(C(=O)c2ccc(F)cc2)CC1`, the melting point lay in the range of 89 to 91 °C.

`CN(C)c1ccc(C(O)(c2ccccc2)c2ccc(N(C)C)cc2)cc1` displayed a melting point of 113 °C.

With `O=C1OC(c2ccccc2)=N/C1=C/c1cc(/C=C2/N=C(c3ccccc3)OC2=O)c([N+](=O)[O-])cc1[N+](=O)[O-]`, the melting point was 266 °C.

With `C=CC(=O)OC1CC2CCC1(C)C2(C)C` (centres undefined), the melting point was determined as 97 °C.

Compound `NC(=O)Nc1cccc(O)c1` had a melting point of 182 to 184 °C.

`COC(=O)c1sccc1-n1cccc1` registered a melting point of 61 °C.

`S=C=Nc1c(Cl)c(Cl)cc(Cl)c1Cl` returned a melting point of 88 to 90 °C.

The compound `c1ccc2c(c1)-c1cc3ccccc3c3cc4ccccc4c-2c13` showed a melting point of 232 °C.

Take `O=C(Cl)c1cc(-c2ccccc2)c(C(F)(F)F)s1`: the melting point fell in the range of 48 to 51 °C.

As for `O=C(O)CNC(=O)CCl`, the melting point worked out at 102 °C.

`O=C(CO)[C@@H](O)[C@@H](O)[C@H](O)[C@H](O)CO` came in with a melting point of 151 °C.

Compound `FC12CC3CC(CC(C3)C1)C2` had a melting point of 225 °C.

Consider `Cc1c(Cl)c(Cl)c(C)c(Cl)c1Cl`, for which the melting point was found to be 216 °C.

As for `C#CC(O)(c1ccccc1)c1ccccc1`, the melting point lay within 47 to 48 °C.

Compound `CCCOC(=O)C1=C(C)NC(=O)NC1c1ccc2c(c1)OCO2` (centres undefined) returned a melting point of 184 to 185 °C.

The compound `O=C1[C@@H](Oc2ccccc2)[C@@H](c2ccccc2)N1[C@@H](Sc1ccccc1)c1ccccc1` had a melting point of 194 °C.

Take `O=C(OCc1ccc([N+](=O)[O-])cc1[N+](=O)[O-])c1ccccc1`: the melting point was 139 °C.

In turn, `COc1cc2c3c(c4ccc(OC)c(OC)c4c2cc1OC)CN1CCCC1C3` (centres undefined) had a melting point of 220 °C.

Consider `C=C(F)C(=O)O`, for which the melting point lay within 51.5 to 52 °C.

Regarding `O=C1OCCC1N(C(=O)C1CC1)c1cccc(Cl)c1` (centres undefined), the melting point amounted to 95 °C.

Compound `COc1cc(C=O)cc([N+](=O)[O-])c1O` displayed a melting point of 176 °C.

Regarding `CCCCCCCCCCCCCCCCS(=O)(=O)c1ccc(N)cc1`, the melting point fell in the range of 115 to 117 °C.

For `Cc1cc2c(c(C)c1C)C(=O)C2`, the melting point worked out at 103 °C.

`O=C1c2ccccc2S(=O)(=O)N1CCCCN1CCN(c2ncccn2)CC1` yielded a melting point of 137 °C.

For the compound `CCC1(c2ccccc2)NC(=O)N(C)C1=O` (centres undefined), the melting point was 136 °C.

Compound `COc1c(Br)cc(C)c2c1CCC2` came in with a melting point of 30 °C.

`Cc1cnc(C(=O)O)cn1` displayed a melting point of 166 °C.

`Cn1ccc2cc(S(=O)(=O)Cl)ccc21` gave a melting point of 79 to 80 °C.

The compound `CC1(C)C2CCC(C2)C12COC(=O)N2` (single isomer, unassigned; (-)) yielded a melting point of 227 to 229 °C.

The compound `Cc1ccc(C(=O)C=Cc2ccc(-c3ccc([N+](=O)[O-])cc3)o2)o1` displayed a melting point of 178 to 179 °C.

Regarding `CC(C)(C)CC(C)(C)c1ccc(O)c(Cc2ccc(Cl)cc2Cl)c1`, the melting point came to 78 °C.

On to `CCCOc1cc(O)cc(OCCC)c1`, for which the melting point was in the range of 43 to 48 °C.

Take `N#CC1CCCC1`: the melting point is -76 °C.

`Cc1cccc(NC(=O)c2ccccc2)c1` came in with a melting point of 125 °C.

The compound `O=C(C1CCCCC1)N1CC(=O)N2CCc3ccccc3C2C1` (centres undefined) yielded a melting point of 136 °C.

Compound `c1ccc(-c2ccc(N=C(CNc3ccc(-c4ccccc4)cc3)Nc3ccc(-c4ccccc4)cc3)cc2)cc1` gave a melting point of 190 °C.

As for `FC(F)(Cl)C(F)(Cl)C(F)(F)Cl`, the melting point is -72 °C.

Regarding `N#Cc1ccc(C=Cc2cccc(C=Cc3ccc(C#N)cc3[N+](=O)[O-])c2)c([N+](=O)[O-])c1`, the melting point stood at 298 °C.

With `OCc1cc(O)cc(O)c1`, the melting point was 181 to 186 °C.

With `O=C(O)c1cc(Cl)ccc1Br`, the melting point amounted to 154 °C.

As for `Cc1ccccc1Nc1[nH]c(=S)nnc1-c1ccccc1`, the melting point came to 294 °C.

For `COC(=O)CC(=O)c1ccccc1Cl`, the melting point turned out to be 25 °C.

The compound `CCCN(CCC)c1c([N+](=O)[O-])cc(S(C)(=O)=O)cc1[N+](=O)[O-]` displayed a melting point of 150 °C.

For `O=C(O)/C(=C/c1ccccc1[N+](=O)[O-])c1ccc([N+](=O)[O-])cc1`, the melting point is 184 °C.

`CC1C(=O)C23C(O)CC4C(C)(C)CCC(O)C4(CO)C2C(O)CC1C3O` (centres undefined) had a melting point of 278 °C.

`CC1N=C(S)N2C(C)N=C(S)N12` (centres undefined) returned a melting point of 182 to 184 °C.

`O=[N+]([O-])c1ccc(SCCO)cc1` returned a melting point of 60 to 61 °C.

For `O=C(Oc1c(F)c(F)c(F)c(F)c1F)c1ccc(OC2CCOCC2)nc1`, the melting point was 114 to 118 °C.

Turning to `Cn1c(=O)c(C2=NNC(=O)C2=NNc2ccncc2)c(O)c2ccccc21`, the melting point is 294 °C.

Compound `CCCC(C)S` (centres undefined) returned a melting point of -169 °C.

`CCN1CCN(C(=O)N[C@@H](C(=O)O)c2ccc(O)cc2)C(=O)C1=O` yielded a melting point of 205 °C.

For `CC1CCC2(C)CCC3(C)C(=CCC4C5(C)CCC(O)C(C)(C)C5CCC43C)C2C1C` (centres undefined), the melting point is 186 °C.

Take `O=[N+]([O-])c1cc([N+](=O)[O-])cc(C(F)(F)F)c1`: the melting point was 51 °C.

`COC1(OC)CC[C@]2(C)[C@H]3CC[C@]4(C)C(=O)CC[C@@]4(O)[C@@H]3CC[C@@]2(C)C1` registered a melting point of 175 to 176 °C.

For the compound `CC(CCC(=O)O)C1CCC2C3C(=O)CC4CC(C(=O)O)CCC4(C)C3CC(C(=O)O)C12C` (centres undefined), the melting point was 207 to 209 °C.

As to `COc1cc(Cl)c(OC)cc1N`, the melting point was 120 °C.

As to `COC(=O)CCC(C)C1CCC2C3C(O)C(O)C4CCCCC4(C)C3CCC12C` (centres undefined), the melting point lay within 120 to 121 °C.

`COc1ccc(NC(=O)C(C(F)(F)F)C(F)(F)F)cc1` yielded a melting point of 185 to 187 °C.

In turn, `CC(C)(C)OC(=O)NC(Cc1cccnc1)C(=O)O` (centres undefined) gave a melting point of 137 °C.

With `COc1ccc(Cl)cc1C=O`, the melting point is 77 °C.
